Reference: patent US11524968B2, “Heterocyclic compound as a protein kinase inhibitor” (HK inno.N Corporation, priority 2017, dated 2022)

Biological target: JAK1 (Homo sapiens (Human), UniProt P23458)
Experiment: Analysis of JAK1 activity inhibition ability (ADP-Glo Kinase Assay)
Assay type: biochemical
Conditions: JAK1 enzyme, ADP-Glo luminescence, ATP 250 uM, IRS-itide substrate, 30° C. 40 minutes; read-out: IC50
Protocol: Test Example 1: Analysis of JAK1 Activity Inhibition Ability of Compound of Formula 1 (ADP-Glo™ Kinase Assay)
A JAK inhibition ability of a compound according to the present invention was identified as follows.
A control material and a test material were prepared for each concentration, in such a way that they were diluted by means of DMSO. At the same time, ATP (250 uM) and JAK substrate (JAK1, IRS-itide 40 ng/mL) were prepared, in such a way that they were diluted by means of kinase buffer (40 mM Tris-HCl pH 7.5, 20 mM MgCl2, 0.5 mg/mL BSA, 50 uM DTT).
A test drug for each concentration, substrate, ATP and JAK enzyme were mixed in an eppendorf tube, and reacted in a 30° C. incubator for 40 minutes.
ADP-Glo™ reagent contained in ADP-Glo™ Kinase Enzyme System (Promega, USA, V9571) was added into each eppendorf tube, and reacted in a 30° C. incubator for 40 minutes. A kinase detection reagent contained in ADP-Go™ Kinase Enzyme System was inserted into the eppendorf tube, then an integration time was set to 1 second by using Wallac Victor 2™, then luminescence was measured, and then JAKs phosphorylation inhibition ability of the test material was analyzed. The concentration of the compound, which causes 50% of the JAK enzyme activity inhibition in comparison With the control group, was determined as IC50 (nM) of an inhibitor, wherein the results thereof are shown in a following table 1.

Sequence of JAK1 (P23458 whole entry): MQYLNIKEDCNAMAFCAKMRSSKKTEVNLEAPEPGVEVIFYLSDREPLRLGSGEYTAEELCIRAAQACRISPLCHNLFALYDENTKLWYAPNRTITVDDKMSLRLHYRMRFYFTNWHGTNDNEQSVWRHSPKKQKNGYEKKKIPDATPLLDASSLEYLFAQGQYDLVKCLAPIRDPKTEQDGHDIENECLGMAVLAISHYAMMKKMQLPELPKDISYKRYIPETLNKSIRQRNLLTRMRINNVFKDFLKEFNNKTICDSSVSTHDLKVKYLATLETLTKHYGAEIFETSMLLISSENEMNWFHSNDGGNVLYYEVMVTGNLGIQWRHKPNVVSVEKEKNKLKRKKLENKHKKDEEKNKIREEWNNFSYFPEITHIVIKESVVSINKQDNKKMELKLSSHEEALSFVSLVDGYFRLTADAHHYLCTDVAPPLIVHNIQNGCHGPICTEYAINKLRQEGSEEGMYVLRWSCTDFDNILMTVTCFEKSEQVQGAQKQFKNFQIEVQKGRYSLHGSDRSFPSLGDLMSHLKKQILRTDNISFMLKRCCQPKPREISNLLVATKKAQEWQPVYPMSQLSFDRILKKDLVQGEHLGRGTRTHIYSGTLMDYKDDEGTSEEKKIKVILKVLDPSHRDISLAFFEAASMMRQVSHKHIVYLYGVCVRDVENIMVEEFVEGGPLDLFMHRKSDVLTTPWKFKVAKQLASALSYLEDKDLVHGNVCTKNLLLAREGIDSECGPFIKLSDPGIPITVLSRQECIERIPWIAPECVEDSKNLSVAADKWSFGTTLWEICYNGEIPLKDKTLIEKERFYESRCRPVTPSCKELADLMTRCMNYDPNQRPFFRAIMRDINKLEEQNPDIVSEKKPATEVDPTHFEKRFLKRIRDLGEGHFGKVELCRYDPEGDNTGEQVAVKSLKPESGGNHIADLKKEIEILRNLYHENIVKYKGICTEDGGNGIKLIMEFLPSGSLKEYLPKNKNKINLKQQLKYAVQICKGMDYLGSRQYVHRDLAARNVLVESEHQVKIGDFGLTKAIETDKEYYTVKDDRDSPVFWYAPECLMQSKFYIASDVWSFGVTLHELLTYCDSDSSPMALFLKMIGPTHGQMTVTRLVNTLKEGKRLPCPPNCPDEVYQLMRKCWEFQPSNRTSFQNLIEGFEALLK

COC(=O)C(C)C(=O)N1CC=C(c2cc(NC(=O)C3CC3)nc3[nH]ccc23)C(C)C1 (centres unmarked) [Example 320, methyl 3-(4-(6-(cyclopropanecarboxamido)-1H-pyrrolo[2,3-b]pyridin-4-yl)-3-methyl-3,6-dihydropyridin-1 (2H)-yl)-2-methyl-3-oxopropanoate]
IC50: > 200 nM

N#CCC(=O)N1C[C@@H]2C[C@H]1CN2c1cc(NC(=O)C2CC2)nc2[nH]ccc12 [Example 679, N-(4-((1S,4S)-5-(2-cyanoacetyl)-2,5-diazabicyclo[2.2.1]heptan-2-yl)-1H-pyrrolo[2,3-b]pyridin-6-yl)cyclopropanecarboxamide]
IC50: > 200 nM

O=C(Nc1ccc(F)cc1)Nc1ccc(-c2nc(NC(=O)C3CC3)nc3[nH]ccc23)cc1 [Example 441, N-(4-(4-(3-(4-fluorophenyl)ureido)phenyl)-7H-pyrrolo[2,3-d]pyrimidin-2-yl)cyclopropanecarboxamide]
IC50: 20 to 200 nM

C[C@@H]1CN(C(=O)CC#N)CC=C1c1cc(NC(=O)C2CC2)nc2[nH]ccc12 [Example 304, (S)—N-(4-(1-(2-cyanoacetyl)-3-methyl-1,2,3,6-tetrahydropyridin-4-yl)-1H-pyrrolo[2,3-b]pyridin-6-yl)cyclopropanecarboxamide]
IC50: < 20 nM

CCc1cc(-c2cc(NC(=O)C3CC3)nc3[nH]ccc23)cc(CC)c1NS(=O)(=O)CC1(C#N)CC1 [Example 138, N-(4-(4-(((1-cyanocyclopropyl)methyl)sulfonamido)-3,5-diethylphenyl)-1H-pyrrolo[2,3-b]pyridin-6-yl)cyclopropanecarboxamide]
IC50: > 200 nM

COC(=O)C1(C(=O)N2CC=C(c3cc(NC(=O)C4CC4)nc4[nH]ccc34)C(C)C2)CC1 (centres unmarked) [Example 319, methyl 1-(4-(6-(cyclopropanecarboxamido)-1H-pyrrolo[2,3-b]pyridin-4-yl)-3-methyl-1,2,3,6-tetrahydropyridine-1-carbonyl)cyclopropane-1-carboxylate]
IC50: > 200 nM

C[C@H]1CC(c2cc(NC(=O)C3CC3)nc3[nH]ccc23)=CCN1C(=O)CC#N [Example 391, (S)—N-(4-(1-(2-cyanoacetyl)-2-methyl-1,2,3,6-tetrahydropyridin-4-yl)-1H-pyrrolo[2,3-b]pyridin-6-yl)cyclopropanecarboxamide]
IC50: 20 to 200 nM

CCS(=O)(=O)Nc1ccc(-c2cc(NC(=O)C3CC3)nc3c2ccn3CC#N)cc1F [Example 62, N-(1-(cyanomethyl)-4-(4-(ethylsulfonamido)-3-fluorophenyl)-1H-pyrrolo[2,3-b]pyridin-6-yl)cyclopropanecarboxamide]
IC50: > 200 nM

O=C(Nc1cc(-c2ccc(NS(=O)(=O)CC3CC3)cc2)c2cc[nH]c2n1)C1CC1 [Example 46, N-(4-(4-((cyclopropylmethyl)sulfonamido)phenyl)-1H-pyrrolo[2,3-b]pyridin-6-yl)cyclopropanecarboxamide]
IC50: < 20 nM

O=C(Nc1cc(-c2ccc(CC(=O)N3CCN(S(=O)(=O)NCC(F)(F)F)CC3)cc2)c2cc[nH]c2n1)C1CC1 [Example 566, (N-(4-(4-(2-oxo-2-(4-(N-(2,2,2-trifluoroethyl)sulfamoyl)piperazin-1-yl)ethyl)phenyl)-1H-pyrrolo[2,3-b]pyridin-6-yl)cyclopropanecarboxamide)]
IC50: > 200 nM

CC(C)(C)OC(=O)N1CCN(c2cc(NC(=O)C3CC3)nc3[nH]ccc23)CC1 [Example 692, tert-butyl 4-(6-(cyclopropanecarboxamido)-1H-pyrrolo[2,3-b]pyridine-4-yl)piperazin-1-carboxylate]
IC50: > 200 nM

N#CC1CN(S(=O)(=O)Nc2ccc(-c3cc(NC(=O)C4CC4)nc4[nH]ccc34)cc2)C1 [Example 221, N-(4-(4-((3-cyanoazetidine)-1-sulfonamido)phenyl)-1H-pyrrolo[2,3-b]pyridin-6-yl)cyclopropanecarboxamide]
IC50: 20 to 200 nM

O=C(Nc1cc(-c2ccc(NS(=O)(=O)N3CCOCC3)cc2)c2cc[nH]c2n1)C1CC1 [Example 214, N-(4-(4-(morpholine-4-sulfonamido)phenyl)-1H-pyrrolo[2,3-b]pyridin-6-yl)cyclopropanecarboxamide]
IC50: < 20 nM

O=C(Nc1cc(-c2ccc(OS(=O)(=O)c3ccc(F)cc3)cc2)c2cc[nH]c2n1)C1CC1 [Example 630, 4-(6-(cyclopropanecarboxamido)-1H-pyrrolo[2,3-b]pyridin-4-yl)phenyl 4-fluorobenzenesulfonate]
IC50: > 200 nM

O=C(Nc1cc(-c2ccc(NS(=O)(=O)CC3CCOCC3)c(F)c2)c2cc[nH]c2n1)C1CC1 [Example 73, N-(4-(3-fluoro-4-(((tetrahydro-2H-pyran-4-yl)methyl)sulfonamido)phenyl)-1H-pyrrolo[2,3-b]pyridin-6-yl)cyclopropanecarboxamide]
IC50: < 20 nM

CC1CN(C(=O)CCCC#N)CC=C1c1cc(NC(=O)C2CC2)nc2[nH]ccc12 (centres unmarked) [Example 285, N-(4-(1-(4-cyanobutanoyl)-3-methyl-1,2,3,6-tetrahydropyridin-4-yl)-1H-pyrrolo[2,3-b]pyridin-6-yl)cyclopropanecarboxamide]
IC50: 20 to 200 nM

CC1CN(C(=O)c2ccnc(N)c2)CC=C1c1cc(NC(=O)C2CC2)nc2[nH]ccc12 (centres unmarked) [Example 381, N-(4-(1-(2-aminoisonicotinoyl)-3-methyl-1,2,3,6-tetrahydropyridin-4-yl)-1H-pyrrolo[2,3-b]pyridin-6-yl)cyclopropanecarboxamide]
IC50: > 200 nM

O=C(Nc1cc(-c2ccc(NS(=O)(=O)CCF)cc2)c2cc[nH]c2n1)C1CC1 [Example 8, N-(4-(4-((2-fluoroethyl)sulfonamido)phenyl)-1H-pyrrolo[2,3-b]pyridin-6-yl)cyclopropanecarboxamide]
IC50: 20 to 200 nM

CC1CN(C(=O)c2ccncc2)CC=C1c1cc(NC(=O)C2CC2)nc2[nH]ccc12 (centres unmarked) [Example 336, N-(4-(1-isonicotinoyl-3-methyl-1,2,3,6-tetrahydropyridin-4-yl)-1H-pyrrolo[2,3-b]pyridin-6-yl)cyclopropanecarboxamide]
IC50: 20 to 200 nM

CCC1CN(C(=O)CC#N)CC=C1c1cc(NC(=O)C2CC2)nc2[nH]ccc12 (centres unmarked) [Example 294, N-(4-(1-(2-cyanoacetyl)-3-ethyl-1,2,3,6-tetrahydropyridin-4-yl)-1H-pyrrolo[2,3-b]pyridin-6-yl)cyclopropanecarboxamide]
IC50: < 20 nM

O=C(Nc1cc(C2=CCN(S(=O)(=O)C3CC3)CC2)c2cc[nH]c2n1)C1CC1 [Example 168, N-(4-(1-(cyclopropylsulfonyl)-1,2,3,6-tetrahydropyridin-4-yl)-1H-pyrrolo[2,3-b]pyridin-6-yl)cyclopropanecarboxamide]
IC50: 20 to 200 nM

O=C(Nc1cc(C2=CCC(NC3CN(C(=O)c4ccnc(F)c4)C3)CC2)c2cc[nH]c2n1)C1CC1 (centres unmarked) [Example 496, N-(4-(4-((1-(2-fluoroisonicotinoyl)azetidin-3-yl)amino)cyclohex-1-en-1-yl)-1H-pyrrolo[2,3-b]pyridin-6-yl)cyclopropanecarboxamide]
IC50: > 200 nM

N#C[C@H]1CCCN1C(=O)CN1C2CCC1CN(c1cc(NC(=O)C3CC3)nc3[nH]ccc13)C2 [Example 703, N-(4-(8-(2-((R)-2-cyanopyrrolidin-1-yl)-2-oxoethyl)-3,8-diazabicyclo[3.2.1]octan-3-yl)-1H-pyrrolo[2,3-b]pyridin-6-yl)cyclopropanecarboxamide]
IC50: > 200 nM

O=C(Nc1cc(-c2ccc(NCc3ccccc3)cc2)c2cc[nH]c2n1)C1CC1 [Example 472, N-(4-(4-(benzylamino)phenyl)-1H-pyrrolo[2,3-b]pyridin-6-yl)cyclopropanecarboxamide]
IC50: > 200 nM

Cn1cc(S(=O)(=O)Nc2ccc(-c3cc(NC(=O)C4CC4)nc4[nH]ccc34)cc2)cn1 [Example 16, N-(4-(4-((1-methyl-1H-pyrazole)-4-sulfonamido)phenyl)-1H-pyrrolo[2,3-b]pyridin-6-yl)cyclopropanecarboxamide]
IC50: 20 to 200 nM

O=C(Nc1cc(C2=CCN(CC(=O)N3CCS(=O)(=O)CC3)CC2)c2cc[nH]c2n1)C1CC1 [Example 578, N-(4-(1-(2-(1,1-dioxidothiomorpholino)-2-oxoethyl)-1,2,3,6-tetrahydropyridin-4-yl)-1H-pyrrolo[2,3-b]pyridin-6-yl)cyclopropanecarboxamide]
IC50: 20 to 200 nM

O=C(Nc1cc(-c2ccc(NS(=O)(=O)N3CCCCC3)c(F)c2)c2cc[nH]c2n1)C1CC1 [Example 224, N-(4-(3-fluoro-4-(piperidine-1-sulfonamido)phenyl)-1H-pyrrolo[2,3-b]pyridin-6-yl)cyclopropanecarboxamide]
IC50: < 20 nM

N#CCC1(CS(=O)(=O)Nc2cc(F)c(-c3cc(NC(=O)C4CC4)nc4[nH]ccc34)cc2F)CC1 [Example 106, N-(4-(4-(((1-(cyanomethyl)cyclopropyl)methyl)sulfonamido)-2,5-difluorophenyl)-1H-pyrrolo[2,3-b]pyridin-6-yl)cyclopropanecarboxamide]
IC50: < 20 nM

N#CCCCS(=O)(=O)Nc1ccc(-c2nc(NC(=O)C3CC3)nc3[nH]ccc23)cc1F [Example 204, N-(4-(4-((3-cyanopropyl)sulfonamido)-3-fluorophenyl)-7H-pyrrolo[2,3-d]pyrimidin-2-yl)cyclopropanecarboxamide]
IC50: 20 to 200 nM
